Among the data in PubChem BioAssay (NCI) are TGI values, retold here.

Test systems include IGROV1 ovarian; HS 578T breast; UO-31 renal; OVCAR-3 ovarian; SR leukemia; ACHN renal; T-47D breast; HCT-15 colon; NCI-H226 lung; SK-MEL-28 melanoma.
Common to all, as to experiment: NCI tumour cell line growth inhibition, 48 h

Molecules are shown by their SMILES.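 Results reflect a 48-hour exposure of cells in 96-well plates to compound at five concentrations. TGI: total growth inhibition.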 Where a SMILES comes first, the peptide text is derived from it. The star is where a group is joined. Bn = c1ccc(C*)cc1 Bounds are passed on as bounds.

With `O=C1CCc2ccc3c(c21)CC1(Cc2ccccc2C1)C3`, the TGI was over 100 µM in the assay on IGROV1 ovarian; over 100 µM in the assay on HS 578T breast; 34 µM in the assay with UO-31 renal; 28.8 µM in the assay on OVCAR-3 ovarian; 78.8 µM with SR leukemia; over 100 µM with ACHN renal. The TGI in the assay with T-47D breast was 59.2 µM; in the assay with HCT-15 colon, over 100 µM; in the assay on NCI-H226 lung, 67.8 µM; in the assay with SK-MEL-28 melanoma it was 88.9 µM.
For the molecule `CC1=CC(=O)C(C(O)(C(F)(F)F)C(F)(F)F)C(C)(C)C1` (stereo unspecified), the TGI in the assay on IGROV1 ovarian, in the assay on HS 578T breast, in the assay with UO-31 renal, in the assay on OVCAR-3 ovarian, in the assay on SR leukemia and with ACHN renal was over 10 µM throughout. Besides, the TGI in the assay on T-47D breast, with HCT-15 colon, in the assay with NCI-H226 lung and in the assay with SK-MEL-28 melanoma was over 10 µM each time.
Turning to `Cc1nn(C(=O)c2ccc(Cl)cc2)c2c1C(c1ccc(O)cc1)SC(N)=N2` (stereo unspecified), the TGI with IGROV1 ovarian, in the assay with HS 578T breast, in the assay on OVCAR-3 ovarian, with SR leukemia, with ACHN renal and in the assay on T-47D breast was over 10 µM each time. Further, the TGI in the assay on HCT-15 colon, with NCI-H226 lung and in the assay on SK-MEL-28 melanoma was over 10 µM in each case.
Consider `COc1ccc(/C=N/N2C(=O)c3c(N)c(C#N)c(-c4ccccc4)c(-c4ccccc4)c3C2=O)cc1`, for which the TGI in the assay with IGROV1 ovarian, in the assay on HS 578T breast, in the assay on UO-31 renal, in the assay with OVCAR-3 ovarian, in the assay on SR leukemia and with ACHN renal was over 100 µM each time. For the same molecule, the TGI in the assay with T-47D breast, with HCT-15 colon, with NCI-H226 lung and with SK-MEL-28 melanoma was over 100 µM each time.
As for `COC(=O)C(CC(C)C)NC(=O)C(N)Cc1ccc(OCc2ccccc2)cc1` (stereo unspecified) (H-Tyr(Bn)-Leu-OMe; configuration not given here), the TGI in the assay on IGROV1 ovarian, in the assay on HS 578T breast, in the assay with UO-31 renal, in the assay on OVCAR-3 ovarian, in the assay with SR leukemia and in the assay with ACHN renal was over 10 µM each time. Moreover, the TGI in the assay on T-47D breast, in the assay on HCT-15 colon, in the assay on NCI-H226 lung and in the assay on SK-MEL-28 melanoma was over 10 µM each time.
For `CC1C(c2ccc3c(c2)OCO3)c2cc3c(cc2OC1N1CCOCC1)OCO3` (stereo unspecified), the TGI with IGROV1 ovarian was over 100 µM; in the assay with HS 578T breast it was 55.2 µM; in the assay on UO-31 renal it was 85 µM; in the assay on OVCAR-3 ovarian it was over 93.8 µM; with SR leukemia it was over 80.2 µM; with ACHN renal, over 100 µM. Moreover, the TGI in the assay on T-47D breast is over 100 µM; with HCT-15 colon it was over 93.7 µM; in the assay with NCI-H226 lung it was 81.7 µM; in the assay with SK-MEL-28 melanoma, over 46.4 µM.
Consider `COC(=O)c1cc2c(cc1CC(Cc1ccc3c(c1)CCC3)C(=O)OC)CCC2` (stereo unspecified), for which the TGI was over 100 µM in the assay with IGROV1 ovarian; over 100 µM with HS 578T breast; over 100 µM in the assay on UO-31 renal; over 100 µM with OVCAR-3 ovarian; 57.4 µM with SR leukemia; over 100 µM in the assay with ACHN renal. Moreover, the TGI in the assay with T-47D breast, in the assay on HCT-15 colon, with NCI-H226 lung and in the assay on SK-MEL-28 melanoma was over 100 µM each time.
On to `C=C(C)[C@@]1(O[Si](C)(C)C)CCCC[C@@H]1CC(Sc1ccccc1)Sc1ccccc1`, for which the TGI in the assay on IGROV1 ovarian turned out to be 32.7 µM; in the assay on HS 578T breast it was 29.7 µM; in the assay with UO-31 renal, 27.3 µM; in the assay with OVCAR-3 ovarian it was 27.7 µM; in the assay on SR leukemia, 31.5 µM; in the assay with ACHN renal it was 28.8 µM. The TGI was determined as 18.8 µM with T-47D breast, 28.6 µM with HCT-15 colon, 32.2 µM with NCI-H226 lung and 37 µM in the assay with SK-MEL-28 melanoma.
For the molecule `CCOC(=O)[C@@H]1ON2O[C@@H](OC3CCCC3(c3ccccc3)c3ccccc3)C[C@H]3OC(=O)[C@@H]1C32` (stereo partly specified), the TGI is over 100 µM with IGROV1 ovarian; over 100 µM in the assay on HS 578T breast; 41.1 µM with UO-31 renal; 54.1 µM in the assay with OVCAR-3 ovarian; 61.4 µM with SR leukemia; 37 µM in the assay with ACHN renal. Besides, the TGI was 69.1 µM in the assay with T-47D breast, 60.7 µM with HCT-15 colon and over 100 µM in the assay with NCI-H226 lung.
For the molecule `O=C(CCCN1CCC2(CC1)C(=NC1CCCCC1)NC(=O)N2c1ccccc1)c1ccc(F)cc1`, the TGI is 62.2 µM in the assay with IGROV1 ovarian; 88.4 µM in the assay on HS 578T breast; 31.6 µM in the assay on OVCAR-3 ovarian; 46.1 µM in the assay on SR leukemia; over 100 µM in the assay on ACHN renal; 76.4 µM in the assay on T-47D breast. Moreover, the TGI in the assay on HCT-15 colon was over 100 µM; in the assay with NCI-H226 lung it was 32.3 µM; in the assay on SK-MEL-28 melanoma it was 34.2 µM.
With `O=C1CS(=O)C23c4cc5ccccc5n4CCC2CCCN13` (stereo unspecified), the TGI with IGROV1 ovarian, in the assay with HS 578T breast, in the assay on OVCAR-3 ovarian, in the assay on SR leukemia, with ACHN renal and in the assay on T-47D breast was over 100 µM in each case. The TGI with HCT-15 colon, with NCI-H226 lung and with SK-MEL-28 melanoma was over 100 µM throughout.
